Assay results taken from US11427548B2 (Arvinas Operations, Inc., priority 2015, dated 2022).
Where two headings read alike, the source gives them in different places.

Molecular target: T1, Androgen Receptor (Homo sapiens, UniProt P10275)
T1 construct: endogenous in cells; host or cells: VCaP cells
T1 sequence (P10275 1-920): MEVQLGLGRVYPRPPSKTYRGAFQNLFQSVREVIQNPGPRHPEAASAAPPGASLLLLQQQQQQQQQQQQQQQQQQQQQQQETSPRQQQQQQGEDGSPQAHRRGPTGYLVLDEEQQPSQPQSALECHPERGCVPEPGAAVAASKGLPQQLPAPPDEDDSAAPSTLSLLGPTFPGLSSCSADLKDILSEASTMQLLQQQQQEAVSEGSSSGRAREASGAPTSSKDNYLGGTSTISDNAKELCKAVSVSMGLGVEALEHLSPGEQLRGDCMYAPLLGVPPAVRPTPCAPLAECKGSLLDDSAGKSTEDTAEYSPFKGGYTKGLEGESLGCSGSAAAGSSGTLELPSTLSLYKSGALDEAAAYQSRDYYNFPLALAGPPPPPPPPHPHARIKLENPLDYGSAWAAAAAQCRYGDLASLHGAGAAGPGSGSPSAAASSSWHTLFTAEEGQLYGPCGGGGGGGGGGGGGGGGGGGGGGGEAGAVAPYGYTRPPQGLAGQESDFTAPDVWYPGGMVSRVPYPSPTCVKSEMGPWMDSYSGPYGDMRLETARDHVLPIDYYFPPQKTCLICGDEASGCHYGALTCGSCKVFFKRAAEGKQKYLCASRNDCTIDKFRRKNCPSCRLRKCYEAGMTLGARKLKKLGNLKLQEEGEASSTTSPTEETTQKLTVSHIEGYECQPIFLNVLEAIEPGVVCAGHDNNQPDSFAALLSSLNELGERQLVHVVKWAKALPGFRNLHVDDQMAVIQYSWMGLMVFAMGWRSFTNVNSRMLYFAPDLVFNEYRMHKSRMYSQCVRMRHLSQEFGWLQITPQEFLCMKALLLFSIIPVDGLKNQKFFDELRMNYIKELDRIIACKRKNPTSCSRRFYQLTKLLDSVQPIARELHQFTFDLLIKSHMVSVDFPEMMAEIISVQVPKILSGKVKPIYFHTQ
Test: Androgen Receptor ELISA assay (PathScan AR ELISA) in VCaP cells: AR degradation, Dmax and DC50
Type: cell-based
Conditions: for DC50: read-out: VCaP DC50; for Dmax: VCaP, read-out: VCaP Dmax (%)
Outline: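 After 24 h exposure of VCaP cells (charcoal-stripped serum, 0.1 nM R1881 agonist, 0.1% DMSO) to seven half-log compound concentrations, residual AR in lysates was measured by PathScan ELISA (TMB absorbance, 450 nm). Cells were plated at 30,000/well and grown at least 3 days beforehand.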

SMILES | DC50 (VCaP cells, Table 36) | Dmax (VCaP cells, Table 36) | Dmax
Cc1nc(-c2ccn(C[C@H](C)NC(=O)c3cc(COCCCN4CCN(CC(=O)N[C@H](C(=O)N5C[C@H](O)C[C@H]5C(=O)N[C@@H](C)c5ccc(-c6scnc6C)cc5)C(C)(C)C)CC4)[nH]n3)n2)ccc1C#N [Example 767, N-((S)-1-(3-(5-cyano-6-methylpyridin-2-yl)-1H-pyrazol-1-yl)propan-2-yl)-5-((3-(4-(2-(((S)-1-((2S,4R)-4-hydroxy-2-(((S)-1-(4-(4-methylthiazol-5-yl)phenyl)ethyl)carbam-oyl)pyrrolidin-1-yl)-3,3-dimethyl-1-oxobutan-2-yl)amino)-2-oxoethyl)piperazin-1-yl)propoxy)methyl)-1H-pyrazole-3-carboxamide] | > 501 nM | 26 to 50% | 
Cc1ncsc1-c1ccc([C@H](C)NC(=O)C2C[C@@H](O)CN2C(=O)C(NC(=O)CCCN2CCN(c3ccc(C(=O)N[C@H]4C(C)(C)[C@H](Oc5ccc(C#N)c(Cl)c5)C4(C)C)cn3)CC2)C(C)(C)C)cc1 (stereo partly drawn) [Example 768, N-((1r,3r)-3-(3-chloro-4-cyanophenoxy)-2,2,4,4-tetramethylcyclobutyl)-6-(4-(4-(((S)-1-((2S,4R)-4-hydroxy-2-(((S)-1-(4-(4-methylthiazol-5-yl)phenyl)ethyl)carbam-oyl)pyrrolidin-1-yl)-3,3-dimethyl-1-oxobutan-2-yl)amino)-4-oxobutyl)piperazin-1-yl)nicotinamide] | > 501 nM | < 25% | 
CC(C)[C@H](C(=O)N1C[C@H](O)C[C@H]1C(=O)NCc1ccc(Cl)cc1)N1Cc2ccc(N3CCN(CCCc4ccc(C(=O)N[C@H]5C(C)(C)[C@H](Oc6ccc(C#N)c(C(F)(F)F)c6)C5(C)C)cc4)CC3)cc2C1=O [Example 769, (2S,4R)-N-(4-chlorobenzyl)-1-((R)-2-(6-(4-(3-(4-(((1r,3r)-3-(4-cyano-3-(trifluoromethyl)phenoxy)-2,2,4,4-tetramethylcyclobutyl)carbamoyl)phenyl)propyl)piperaizn-1-yl)-1-oxoisoindolin-2-yl)-3-methylbutanoyl)-4-hydroxypyrrolidine-2-carboxamide] | > 501 nM | < 25% | 
CC(C)[C@@H](C(=O)N1C[C@H](O)C[C@H]1C(=O)NCc1ccc(Cl)cc1)N1Cc2ccc(N3CCN(CCCc4ccc(C(=O)N[C@H]5C(C)(C)[C@H](Oc6ccc(C#N)c(C(F)(F)F)c6)C5(C)C)cc4)CC3)cc2C1=O [Example 770, (2S,4R)-N-(4-chlorobenzyl)-1-((S)-2-(6-(4-(3-(4-(((1r,3r)-3-(4-cyano-3-(trifluoromethyl)phenoxy)-2,2,4,4-tetramethylcylcobutyl)carbamoyl)phenyl)propyl)piperazin-1-yl)-1-oxoisoindolin-2-yl)-3-methylbutanoyl)-4-hydroxypyrrolidine-2-carboxamide] | > 501 nM | < 25% | 
Cc1ncsc1-c1ccc([C@H](C)NC(=O)[C@@H]2C[C@@H](O)CN2C(=O)[C@@H](C(C)C)N2Cc3ccc(N4CCN(CCCc5ccc(C(=O)N[C@H]6C(C)(C)[C@H](Oc7ccc(C#N)c(Cl)c7)C6(C)C)cc5)CC4)cc3C2=O)cc1 [Example 777, (2S,4R)-1-((R)-2-(6-(4-(3-(4-(((1r,3r)-3-(3-chloro-4-cyanophenoxy)-2,2,4,4-tetramethylcyclobutyl)carbamoyl)phenyl)propyl)piperazin-1-yl)-1-oxoisoindolin-2-yl)-3-methylbutanoyl)-4-hydroxy-N-((S)-1-(4-(4-methylthiazol-5-yl)phenyl)ethyl)pyrrolidine-2-carboxamide] | > 501 nM |  | < 25%

Second part, led by results:

DC50 (VCaP cells, Table 36) | Dmax (VCaP cells, Table 36) | SMILES | Dmax
> 501 nM | < 25% | CC(C)[C@H](C(=O)N1C[C@H](O)C[C@H]1C(=O)NCc1ccc(C#N)cc1)N1Cc2ccc(N3CCN(CCCc4ccc(C(=O)N[C@H]5C(C)(C)[C@H](Oc6ccc(C#N)c(C(F)(F)F)c6)C5(C)C)cc4)CC3)cc2C1=O [Example 771, (2S,4R)-1-((R)-2-(6-(4-(3-(4-(((1r,3r)-3-(4-cyano-3-(trifluoromethyl)phenoxy)-2,2,4,4-tetramethylcyclobutyl)carbamoyl)phenyl)propyl)piperazin-1-yl)-1-oxoisoindolin-2-yl)-3-methylbutanoyl)-N-(4-cyanobenzyl)-4-hydroxypyrrolidine-2-carboxamide] | 
> 501 nM | < 25% | CC(C)[C@@H](C(=O)N1C[C@H](O)C[C@H]1C(=O)NCc1ccc(C#N)cc1)N1Cc2ccc(N3CCN(CCCc4ccc(C(=O)N[C@H]5C(C)(C)[C@H](Oc6ccc(C#N)c(C(F)(F)F)c6)C5(C)C)cc4)CC3)cc2C1=O [Example 772, (2S,4R)-1-((S)-2-(6-(4-(3-(4-(((1r,3r)-3-(4-cyano-3-(trifluoromethyl)phenoxy)-2,2,4,4-tetramethylcyclobutyl)carbamoyl)phenyl)propyl)piperazin-1-yl)-1-oxoisoindolin-2-yl)-3-methylbutanoyl)-N-(4-cyanobenzyl)-4-hydroxypyrrolidine-2-carboxamide] | 
> 501 nM | < 25% | Cc1ncsc1-c1ccc(CNC(=O)[C@@H]2C[C@@H](O)CN2C(=O)[C@@H](C(C)C)N2Cc3ccc(N4CCN(CCCc5ccc(C(=O)N[C@H]6C(C)(C)[C@H](Oc7ccc(C#N)c(Cl)c7)C6(C)C)cc5)CC4)cc3C2=O)cc1 [Example 773, (2S,4R)-1-((R)-2-(6-(4-(3-(4-(((1r,3r)-3-(3-chloro-4-cyanophenoxy)-2,2,4,4-tetramethylcyclobutyl)carbamoyl)phenyl)propyl)piperazin-1-yl)-1-oxoisoindolin-2-yl)-3-methylbutanoyl)-4-hydroxy-N-(4-(4-methylthiazol-5-yl)benzyl)pyrrolidine-2-carboxamide] | 
> 501 nM | < 25% | Cc1ncsc1-c1ccc(CNC(=O)[C@@H]2C[C@@H](O)CN2C(=O)[C@H](C(C)C)N2Cc3ccc(N4CCN(CCCc5ccc(C(=O)N[C@H]6C(C)(C)[C@H](Oc7ccc(C#N)c(Cl)c7)C6(C)C)cc5)CC4)cc3C2=O)cc1 [Example 774, (2S,4R)-1-((S)-2-(6-(4-(3-(4-(((1r,3r)-3-(3-chloro-4-cyanophenoxy)-2,2,4,4-tetramethylcyclobutyl)carbamoyl)phenyl)propyl)piperazin-1-yl)-1-oxoisoindolin-2-yl)-3-methylbutanoyl)-4-hydroxy-N-(4-(4-methylthiazol-5-yl)benzyl)pyrrolidine-2-carboxamide] | 
> 501 nM | < 25% | CC(C)(C)[C@H](NC(=O)COCCN1CCN(c2ccc(C(=O)N[C@H]3C(C)(C)[C@H](Oc4ccc(C#N)c(Cl)c4)C3(C)C)cn2)CC1)C(=O)N1C[C@H](O)C[C@H]1C(=O)NCc1cc(F)ccc1F [Example 775, N-((1r,3r)-3-(3-chloro-4-cyanophenoxy)-2,2,4,4-tetramethylcyclobutyl)-6-(4-(2-(2-(((S)-1-((2S,4R)-2-((2,5-difluorobenzyl)carbamoyl)-4-hydroxypyrrolidin-1-yl)-3,3-dimethyl-1-oxobutan-2-yl)amino)-2-oxoethoxy)ethyl)piperazin-1-yl)nicotinamide] | 
> 501 nM | < 25% | CC(C)(C)c1ccc(CNC(=O)[C@@H]2C[C@@H](O)CN2C(=O)[C@@H](NC(=O)COCCN2CCN(c3ccc(C(=O)N[C@H]4C(C)(C)[C@H](Oc5ccc(C#N)c(Cl)c5)C4(C)C)cn3)CC2)C(C)(C)C)cc1 [Example 776, 6-(4-(2-(2-(((S)-1-((2S,4R)-2-((4-(tert-butyl)benzyl)carbamoyl)-4-hydroxypyrrolidin-1-yl)-3,3-dimethyl-1-oxobutan-2-yl)amino)-2-oxoethoxy)ethyl)piperazin-1-yl)-N-((1r,3r)-3-(3-chloro-4-cyanophenoxy)-2,2,4,4-tetramethylcyclobutyl) nicotinamide] | 
